What was measured:
[1] = test system: double-stranded oligodeoxynucleotide (dsDNA); assay: ESI-MS analysis of DNA alkylation; assay type: biochemical; conditions: 50 μM compound, 2 μM dsDNA
[2] = test system: supercoiled plasmid pBR322; assay: DNA cleavage assay; assay type: biochemical
[3] = Parallel artificial membrane permeation assay; assay type: in vitro ADME; conditions: incubation for 1 h, PBS pH 7.4
[4] = test system: BxPC-3 pancreatic carcinoma cells; assay: MTT cytotoxicity assay, BxPC-3; assay type: cell-based; conditions: BxPC-3 cells, L-1 versus D-1
[5] = 2 h at 37 °C, highest concentration 50 μM

| Compound | DNA modifications detected by ESI-MS ([1]; 2 h at 37 °C) | DNA modifications detected by ESI-MS ([1]; 18 h at 37 °C) | DNA cleavage activity ([2]; 2 h at 37 °C, 5 and 50 μM) | PAMPA permeation, in words [3] | DNA cleavage activity [2, 5] | DNA cleavage activity ([2]; 18 h at 37 °C, 5 and 50 μM) | further results |
| --- | --- | --- | --- | --- | --- | --- | --- |
| CCCCN1CCCC(Cl)C1 (stereo not shown) [Compound 1] | exclusively the signal corresponding to the unreacted DNA substrate | formation of adducts and of abasic lesions | inactive | – | – | – | – |
| CCCCN1CC(Cl)CC(C)(C)C1 (stereo not shown) [Compound 2] | additional peaks corresponding to 3-chloropiperidine–DNA adducts were detected | formation of adducts and of abasic lesions | – | barely detected in the acceptor compartment | caused the conversion of supercoiled DNA into the OC form | – | – |
| CC1(C)CC(Cl)CN(Cc2ccccc2)C1 (stereo not shown) [Compound 3] | – | – | – | barely detected in the acceptor compartment | caused the conversion of supercoiled DNA into the OC form | – | – |
| CCCCN1CCC[C@H](Cl)C1 [D-1] | – | – | – | – | – | inactive even after prolonged incubation | – |
| CCCCN1CCC[C@@H](Cl)C1 [L-1] | – | – | – | – | – | more active than the racemate 1 | eudismic ratio [4]: ~40 |
| O=C(O)CCCc1ccc(N(CCCl)CCCl)cc1 [chlorambucil, reference compound] | – | – | inactive at all concentrations | – | – | – | – |
